#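 Tested at 5 concentrations; 48 h exposure; 96-well plates; endpoints linearly interpolated, else capped at highest concentration. Here, GI50 denotes the concentration required for 50% inhibition of growth. TGI denotes the concentration required for complete inhibition of growth.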
# Experiments:
# Experiment in all cases: inhibition of tumour cell growth, NCI panel, 48 h
# [1] = system: SF-295 CNS
# [2] = system: TK-10 renal
# [3] = system: SK-MEL-5 melanoma
# [4] = system: MCF7 breast
# [5] = system: MOLT-4 leukemia
# [6] = system: NCI-H522 lung
# [7] = system: 786-0 renal
# [8] = system: CCRF-CEM leukemia
# [9] = system: SNB-19 CNS
# [10] = system: PC-3 prostate
# [11] = system: K-562 leukemia
# [12] = system: OVCAR-3 ovarian
# [13] = system: SW-620 colon
# [14] = system: CAKI-1 renal
# [15] = system: COLO 205 colon
# [16] = system: SK-MEL-28 melanoma
# [17] = system: MDA-MB-231 breast
# [18] = system: UACC-62 melanoma
# [19] = system: HCT-116 colon
# [20] = system: NCI-H460 lung
# [21] = system: SK-MEL-2 melanoma
# [22] = system: HOP-62 NSCLC
# [23] = system: MALME-3M melanoma
# [24] = system: HT29 colon
# [25] = system: MDA-MB-435
# [26] = system: T-47D breast
# [27] = system: LOX IMVI melanoma
# [28] = system: ACHN renal
# [29] = system: A549 NSCLC
# [30] = system: SN12C renal
# [31] = system: SNB-75 CNS
# [32] = system: SF-268 CNS
# [33] = system: NCI-H23 lung
# [34] = system: M14 melanoma
# [35] = system: OVCAR-8 ovarian
# [36] = system: UACC-257 melanoma
# [37] = system: HS 578T breast
# [38] = system: BT-549 breast
# [39] = system: RPMI-8226 leukemia
# [40] = system: SF-539 CNS
# [41] = system: KM12 colon
# [42] = system: OVCAR-5 ovarian
# [43] = system: NCI-H226 lung
# [44] = system: UO-31 renal
# [45] = system: HCC-2998 colon
# [46] = system: HOP-92 NSCLC
# [47] = system: SR leukemia
# [48] = system: OVCAR-4 ovarian
# [49] = system: NCI/ADR-RES ovarian
# [50] = system: HL-60(TB) leukemia
# [51] = system: HCT-15 colon
# [52] = system: U251 CNS
# [53] = system: SK-OV-3 ovarian
# [54] = system: A498 renal
# [55] = system: DU-145 prostate
# [56] = system: IGROV1 ovarian
# [57] = system: RXF 393 renal
# [58] = system: EKVX NSCLC
smiles,measurement,setting,value
Cc1ccc2c(c1)C(=O)/C(=C/c1ncc([N+](=O)[O-])n1C)O2,GI50,[1],2.22 µM
same,TGI,[1],7.82 µM
same,GI50,[2],3.19 µM
same,TGI,[2],11 µM
same,GI50,[3],1.14 µM
same,TGI,[3],2.51 µM
same,GI50,[4],0.534 µM
same,TGI,[4],9.88 µM
same,GI50,[5],0.5 µM
same,TGI,[5],7.43 µM
same,GI50,[6],1.5 µM
same,TGI,[6],3.38 µM
same,GI50,[7],2.16 µM
same,TGI,[7],5.31 µM
same,GI50,[8],0.324 µM
same,TGI,[8],2.95 µM
same,GI50,[9],2.36 µM
same,TGI,[9],> 25.6 µM
same,GI50,[10],2.35 µM
same,TGI,[10],> 24.9 µM
same,GI50,[11],0.598 µM
same,TGI,[11],> 24.9 µM
same,GI50,[12],2.53 µM
same,TGI,[12],6.55 µM
same,GI50,[13],0.271 µM
same,TGI,[13],2.3 µM
same,GI50,[14],0.665 µM
same,TGI,[14],7.54 µM
same,GI50,[15],1.99 µM
same,TGI,[15],5.09 µM
same,GI50,[16],2.34 µM
same,TGI,[16],7.29 µM
same,GI50,[17],1.56 µM
same,TGI,[17],6.92 µM
same,GI50,[18],1.38 µM
same,TGI,[18],3.84 µM
same,GI50,[19],0.282 µM
same,TGI,[19],0.886 µM
same,GI50,[20],2.05 µM
same,TGI,[20],5.97 µM
same,GI50,[21],1.88 µM
same,TGI,[21],3.54 µM
same,GI50,[22],5.79 µM
same,TGI,[22],16.9 µM
same,GI50,[23],1.8 µM
same,TGI,[23],4.37 µM
same,GI50,[24],0.491 µM
same,TGI,[24],3.36 µM
same,GI50,[25],0.371 µM
same,TGI,[25],1.88 µM
same,GI50,[26],20.4 µM
same,TGI,[26],76.5 µM
same,GI50,[27],0.404 µM
same,TGI,[27],1.23 µM
same,GI50,[28],0.489 µM
same,TGI,[28],9.11 µM
same,GI50,[29],2.74 µM
same,TGI,[29],9.29 µM
same,GI50,[30],1.77 µM
same,TGI,[30],6.55 µM
same,GI50,[31],3.14 µM
same,TGI,[31],22.8 µM
same,GI50,[32],1.93 µM
same,TGI,[32],5.53 µM
same,GI50,[33],2.28 µM
same,TGI,[33],6.56 µM
same,GI50,[34],1.11 µM
same,TGI,[34],4.9 µM
same,GI50,[35],0.481 µM
same,TGI,[35],7 µM
same,GI50,[36],1.98 µM
same,TGI,[36],5.65 µM
same,GI50,[37],1.94 µM
same,TGI,[37],> 23.2 µM
same,GI50,[38],1.95 µM
same,TGI,[38],5.48 µM
same,GI50,[39],1.6 µM
same,TGI,[39],5.63 µM
same,GI50,[40],2.26 µM
same,TGI,[40],6.19 µM
same,GI50,[41],1.67 µM
same,TGI,[41],5.21 µM
same,GI50,[42],2.7 µM
same,TGI,[42],> 27 µM
same,GI50,[43],4.62 µM
same,TGI,[43],17.4 µM
same,GI50,[44],1.17 µM
same,TGI,[44],5.04 µM
same,GI50,[45],2.29 µM
same,TGI,[45],5.4 µM
same,GI50,[46],2.24 µM
same,TGI,[46],> 19.8 µM
same,GI50,[47],0.0379 µM
same,TGI,[47],0.431 µM
same,GI50,[48],2.15 µM
same,TGI,[48],> 22.7 µM
same,GI50,[49],2.24 µM
same,TGI,[49],7.04 µM
same,GI50,[50],1.88 µM
same,TGI,[50],9.71 µM
same,GI50,[51],0.369 µM
same,TGI,[51],8.78 µM
same,GI50,[52],1.93 µM
same,TGI,[52],5.32 µM
same,GI50,[53],2.53 µM
same,TGI,[53],7.24 µM
same,GI50,[54],1.99 µM
same,TGI,[54],6.63 µM
same,GI50,[55],2.65 µM
same,TGI,[55],7.63 µM
same,GI50,[56],1.96 µM
same,TGI,[56],> 23.7 µM
CN1CCN(Cc2ccc(NC(=O)c3cncc(C#Cc4cnc(N)c5ccc(C#N)cc45)c3)cc2C(F)(F)F)CC1,GI50,[1],0.214 µM
same,TGI,[1],9.95 µM
same,GI50,[2],0.21 µM
same,TGI,[2],1.47 µM
same,GI50,[3],0.176 µM
same,TGI,[3],0.696 µM
same,GI50,[4],0.688 µM
same,TGI,[4],1.86 µM
same,GI50,[5],0.028 µM
same,TGI,[5],1.4 µM
same,GI50,[6],0.088 µM
same,TGI,[6],1.69 µM
same,GI50,[7],0.111 µM
same,TGI,[7],1.01 µM
same,GI50,[8],0.0803 µM
same,TGI,[8],2.05 µM
same,GI50,[10],0.357 µM
same,TGI,[10],1.37 µM
same,GI50,[12],0.331 µM
same,TGI,[12],1.45 µM
same,GI50,[13],0.059 µM
same,TGI,[13],1.45 µM
same,GI50,[14],0.0175 µM
same,TGI,[14],0.206 µM
same,GI50,[15],0.0178 µM
same,TGI,[15],0.722 µM
same,GI50,[16],0.0273 µM
same,TGI,[16],0.519 µM
same,GI50,[17],0.037 µM
same,TGI,[17],0.228 µM
same,GI50,[18],0.0279 µM
same,TGI,[18],0.422 µM
same,GI50,[19],0.0254 µM
same,TGI,[19],0.672 µM
same,GI50,[20],0.0976 µM
same,TGI,[20],1.1 µM
same,GI50,[21],0.0217 µM
same,TGI,[21],0.353 µM
same,GI50,[22],0.0439 µM
same,TGI,[22],0.927 µM
same,GI50,[23],0.0134 µM
same,TGI,[23],0.0943 µM
same,GI50,[24],0.0211 µM
same,TGI,[24],0.838 µM
same,GI50,[25],0.0286 µM
same,TGI,[25],0.675 µM
same,GI50,[26],0.247 µM
same,TGI,[26],2.03 µM
same,GI50,[27],0.0203 µM
same,TGI,[27],0.546 µM
same,GI50,[28],0.0237 µM
same,TGI,[28],0.526 µM
same,GI50,[29],0.0353 µM
same,TGI,[29],0.919 µM
same,GI50,[30],0.0218 µM
same,TGI,[30],0.611 µM
same,GI50,[31],0.123 µM
same,TGI,[31],0.876 µM
same,GI50,[32],0.0497 µM
same,TGI,[32],0.859 µM
same,GI50,[33],0.172 µM
same,TGI,[33],1.27 µM
same,GI50,[57],0.0162 µM
same,TGI,[57],0.151 µM
same,GI50,[34],0.0151 µM
same,TGI,[34],0.258 µM
same,GI50,[35],0.141 µM
same,TGI,[35],1.32 µM
same,GI50,[36],0.136 µM
same,TGI,[36],3.09 µM
same,GI50,[37],0.0217 µM
same,TGI,[37],0.406 µM
same,GI50,[38],0.729 µM
same,TGI,[38],10.8 µM
same,GI50,[39],0.0775 µM
same,TGI,[39],1.25 µM
same,GI50,[40],0.101 µM
same,TGI,[40],0.598 µM
same,GI50,[41],0.005 µM
same,TGI,[41],0.603 µM
same,GI50,[42],0.211 µM
same,TGI,[42],0.986 µM
same,GI50,[43],0.0698 µM
same,TGI,[43],0.864 µM
same,GI50,[58],0.185 µM
same,TGI,[58],6.13 µM
same,GI50,[44],0.0809 µM
same,TGI,[44],0.565 µM
same,GI50,[45],0.901 µM
same,TGI,[45],11.1 µM
same,GI50,[46],0.0244 µM
same,TGI,[46],0.344 µM
same,GI50,[47],0.0464 µM
same,TGI,[47],2.4 µM
same,GI50,[49],0.915 µM
same,TGI,[49],2.03 µM
same,GI50,[50],0.0483 µM
same,TGI,[50],1.05 µM
same,GI50,[51],0.122 µM
same,TGI,[51],0.787 µM
same,GI50,[52],0.0235 µM
same,TGI,[52],0.846 µM
same,GI50,[53],0.0212 µM
same,TGI,[53],0.599 µM
same,GI50,[54],0.0208 µM
same,TGI,[54],0.478 µM
same,GI50,[55],0.0332 µM
same,TGI,[55],1.47 µM

# From PubChem BioAssay (NCI)
